Values after ≈ are worked out from the molar mass of the structure shown. Like-named read-outs stand apart in the source and are kept apart here.
Legend:
[1] = Caco-2 Permeability Assay; format: in vitro ADME; conditions: human; for Papp A→B at 2 h, 1 μM: Caco-2, pH 7.4, apical to basolateral, read-out: Caco2 Papp (AB); for Papp B→A at 2 h, 1 μM: Caco-2, pH 7.4, basolateral to apical, read-out: Caco2 Papp (BA)
Protocol: Preparation of Caco-2 Cells: 50 μL and 25 mL of cell culture medium were added to each well of the Transwell insert and reservoir, respectively. The HTS transwell plates were incubated at 37° C., 5% CO2 for 1 hour before cell seeding. Caco-2 cells were diluted to 6.86×10^5 cells/mL with culture medium and 50 μL of cell suspension were dispensed into the filter well of the 96-well HTS Transwell plate. Cells were cultivated for 14-18 days in a cell culture incubator at 37° C., 5% CO2, 95% relative humidity. Cell culture medium was replaced every other day, beginning no later than 24 hours after initial plating.
Assessment of Cell Monolayer Integrity: Medium was removed from the reservoir and each Transwell insert and replaced with prewarmed fresh culture medium. Transepithelial electrical resistance (TEER) across the monolayer was measured using Millicell Epithelial Volt-Ohm measuring system (Millipore, USA). The Plate was returned to the incubator once the measurement was done. The TEER value was calculated according to the following equation: TEER measurement (ohms)×Area of membrane (cm^2)=TEER value (ohm·cm^2)
TEER value should be greater than 230 ohm·cm^2, which indicates the well-qualified Caco-2 monolayer.
Preparation of Solutions: 2 mM stock solutions in DMSO of control compounds were prepared and diluted with HBSS (10 mM HEPES, pH 7.4) to get 10 μM working solution. 0.2 mM stock solutions of test compounds in DMSO were prepared and diluted with HBSS (10 mM HEPES, pH 7.4 with 0.5% BSA) to get 1 μM working solution. Metoprolol, erythromycin and cimetidine were used as control compounds.
Performing the Drug Transport Assay: The Caco-2 plate was removed from the incubator. The monolayer was washed twice with pre-warmed HBSS (10 mM HEPES, pH 7.4). The plate was incubated at 37° C. for 30 minutes. To determine the rate of drug transport in the apical to basolateral direction, 125 μL of the working solution was added to the Transwell insert (apical compartment). A 50 μL sample was transferred immediately from the apical compartment to 200 μL of acetonitrile containing IS (100 nM alprazolam, 200 nM Caffeine and 100 nM tolbutamide) in a new 96-well plate as the initial donor sample (A-B) and it was vortexed at 1000 rpm for 10 minutes. The wells in the receiver plate (basolateral compartment) were filled with 235 μL of transport buffer. To determine the rate of drug transport in the basolateral to apical direction, 285 μL of the working solution were added to the receiver plate wells (basolateral compartment). […]
Data analysis: All calculations were carried out using Microsoft Excel. Peak areas were determined from extracted ion chromatograms. […]

[2] = Solubility Determination Assay (PBS, LC-MS/MS); format: physicochemical; conditions: aqueous buffer, kinetic from dmso stock
Protocol: The stock solutions of test compounds and control compound progesterone were prepared in DMSO at the concentrations of 10 mM. 15 μL of stock solution (10 mM) of each sample was placed in order into their proper 96-well rack. 485 μL of PBS pH 1.6 and pH 7.4 were added into each vial of the cap-less Solubility Sample plate. The assay was performed in singlet. One stir stick was added to each vial and then the vial was sealed using a molded PTFE/Silicone plug. […] After completion of the 2 hours, plugs were removed and the stir sticks were removed using a big magnet. The samples from the Solubility Sample plate were transferred into the filter plate. Using the Vacuum Manifold, all the samples were filtered. An aliquot of 5 μL was taken from the filtrate followed by addition of 495 μL of a mixture of H2O and acetonitrile containing internal standard (1:1). A certain proportion of ultrapure water was used to dilute the diluent according to the peak shape. The dilution factor was changed according to the solubility values and the LC-MS signal response.
From the 10 mM DMSO STD plate, 6 μL was transferred into the remaining empty plate, and then 194 μL of DMSO were added to that plate to have a STD concentration of 300 μM. From the 300 μM DMSO STD plate, 5 μL were transferred into the remaining empty plate, and then 495 μL of a mixture of H2O and acetonitrile containing internal standard (1:1) were added to that plate to have a final STD concentration of 3 μM. A certain proportion of ultrapure water was used to dilute the diluent according to the peak shape. The concentrations of the standard samples were changed according to the LC-MS signal response.
The plate was placed into the well plate autosampler. The samples were evaluated by LC-MS/MS analysis.
All calculations were carried out using Microsoft Excel.
The filtrate was analyzed and quantified against a standard of known concentration using LC coupled with mass spectral peak identification and quantitation. Solubility values of the test compound and control compound were calculated as follows: […]
Any value of the compounds that was not within the specified limits was rejected and the experiment was repeated.
“+++” indicates a solubility value equal to or greater than 10 μM, “++” indicates a solubility value between 1 and 10 μM, and “+” indicates a solubility value less than 1 μM.

[3] = PBS pH 1.6, 25° C., read-out: Aq. Solubility at pH = 1.6
[4] = PBS pH 7.4, 25° C., read-out: Aq. Solubility at pH = 7.4

Row | Papp A→B at 2 h, 1 μM [1] [×10⁻⁶ cm/s] | Papp B→A at 2 h, 1 μM [1] [×10⁻⁶ cm/s] | solubility at 2 h [2, 3] [µM] | solubility at 2 h [2, 4] [µM] | Structure (SMILES)
1 | > 10 | > 10 | > 10 | 1 to 10 (≈ 0.386 to 3.86 µg/mL) | Cn1ncnc1C(=O)Nc1ccc2nc(-c3ccccc3C(F)(F)F)[nH]c2c1 [Compound H, 1-methyl-N-(2-(2-(trifluoromethyl)phenyl)-1H-benzo[d]imidazol-6-yl)-1H-1,2,4-triazole-5-carboxamide]
2 | > 10 | > 10 | > 10 | > 10 | Cn1nccc1C(=O)Nc1ccc2nc(-c3ccccc3C(F)(F)F)[nH]c2c1 [A, 1-methyl-N-(2-(2-(trifluoromethyl)phenyl)-1H-benzo[d]imidazol-6-yl)-1H-pyrazole-5-carboxamide]
